Experimental data reported in patent publication US20220372448A1, “CELL LINE AND PRODUCING METHOD THEREOF” (University of Yamanashi, priority 2021, published 2022).

Test system: VeroE6/Rep #3 cells
Assay: MTS assay for cell survival rate of VeroE6/Rep #3 cells
Conditions: 72 hours, EIDD-2801 20 μM, library compounds 10 μM

CC(C)C(=O)OC[C@H]1O[C@@H](n2ccc(NO)nc2=O)[C@H](O)[C@@H]1O [EIDD-2801, molnupiravir]
cell proliferation / cell survival (MTS assay) compared with DMSO negative control: a decrease in cell proliferation was not observed
